Laboratory results reported in patent US20260373186A1 (Mireca Medicines GmbH, priority 2022, published 2026).
Counter-ions that a name gives are not always drawn. Like-named read-outs stand apart in the source and are kept apart here.

Experiments:
[1] = In vitro drug release from Compound 188-loaded microparticles; format: physicochemical; conditions: 99% PLGA75125 4A and 1% PLGA5050-PEG5K, PBS with 1% Tween 20, 37 °C
[2] = Drug loading of Compound 188-loaded microparticles (HPLC); format: physicochemical; conditions: 99% PLGA75125 4A and 1% PLGA5050-PEG5K
[3] = In vitro drug release from Compound 221-loaded implants; format: physicochemical; conditions: implants (hot melt extrusion), 99% PLGA75125 4A and 1% PLGA5050-PEG5K; PBS with 1% Tween 20, 37 °C
Experimental: (§1) Compound 221 and biodegradable polymer excipients including PLGA and PLGA-PEG were weighed and thoroughly premixed in a sealed container. The powder blend was fed into an extruder (HAAKE Twin Screw Compounder, Thermo Fisher Scientific), which was pre-set to a temperature of 80-90 °C and a screw speed of 150 rpm. The blend was heated in the extruder and recirculated in the extruder chamber through an internal loop channel for a pre-set duration (e.g., 2-30 min). The filament was extruded at pre-set screw speed (e.g, 10-300 rpm) through a die, guided by a conveying belt and cut into desired length (3-10 mm) for further testing.
(§2) The drug loading of the implants was quantitated by HPLC.

[4] = Drug loading of Compound 221-loaded microparticles (HPLC); conditions: 99% PLGA75125 4A and 1% PLGA5050-PEG5K
[5] = Drug loading of Compound 221-loaded implants (HPLC); format: physicochemical; conditions: implants (hot melt extrusion), 99% PLGA75125 4A and 1% PLGA5050-PEG5K
Experimental: as §1, §2

[6] = In vitro drug release from Compound 221-loaded microparticles; conditions: 99% PLGA75125 4A and 1% PLGA5050-PEG5K, PBS with 1% Tween 20, 37 °C
[7] = tested on: photoreceptors of rd1 explants; assay: Photoreceptor cell death in rd1 retinal explants (TUNEL); format: cell-based; conditions: Mus musculus
Source text: Legend: The animals at the age of postnatal day 5 (PN5) were killed by decapitation and retinas were dissected out with retinal pigment epithelium attached as described previously (Caffe, A. R.; Ahuja, P.; Holmqvist, B.; Azadi, S.; Forsell, J.; Holmqvist, I.; Soderpalm, A. K.; van Veen, T., Mouse retina explants after long-term culture in serum free medium. J Chem Neuroanat 2001, 22 (4), 263-73). The retinas were flattened out on the membranes of commercially available 6-well culture inserts, after which 1.5 ml of a custom made culturing medium was added to each well. These explants were then kept in culture for two days without any treatment after which the test analog of the invention at the desired concentration was added at a medium change at PN7 (“7” in Figure). […]
Legend: Effects of selected analogs at given concentrations of the invention on the cell death of photoreceptors of rd1 explants. The cell death was assessed by so called TUNEL stain on fixated and sectioned material, after which the number of dying cells was counted and analyzed, and compared with that from untreated rd1 explants. In order to allow more direct comparisons between the different analogs and concentrations a ratio of treated/untreated specimens was calculated. […]

[8] = tested on: cGMP dependent protein kinase; conditions: cited from earlier work
[9] = tested on: rd1 and rd2 photoreceptors; conditions: in vitro; cited from earlier work
[10] = tested on: rd1 and rd2 photoreceptors; conditions: in vivo mouse retinitis pigmentosa models; cited from earlier work

SMILES: Cc1ccc(-c2cn3c(=O)c4nc(Br)n([C@@H]5O[C@@H]6CO[P@@](=O)(S)O[C@H]6[C@H]5O)c4nc3[nH]2)cc1 [Compound 188-BEN, 8-bromo-(4-methyl-β-phenyl-1,N^2-etheno)guanosine-3′,5′-cyclic monophosphorothioate, Rp-isomer, N-benzyl-2-phenylethan-1-aminium salt]
- Release duration ([1]; target drug loading 30%): 29 days
- Compound 188 loading (w/w) ([2]; target drug loading 30%): 26%

SMILES: Cc1ccc(-c2cn3c(=O)c4nc(Br)n([C@@H]5O[C@@H]6CO[P@@](=O)(S)O[C@H]6[C@H]5O)c4nc3[nH]2)cc1 [Compound 188-BEZ, 8-bromo-(4-methyl-β-phenyl-1,N^2-etheno)guanosine-3′,5′-cyclic monophosphorothioate, Rp-isomer, N-benzyl-2-(benzylamino)ethan-1-aminium salt]
- Release duration: % released in 49 days ([1]; target drug loading 20%, in 49 days): 32% released
- Compound 188 loading (w/w) ([2]; target drug loading 20%): 19.6%

SMILES: Cc1ccc(-c2cn3c(=O)c4nc(Br)n([C@@H]5O[C@@H]6CO[P@@](=O)(S)O[C@H]6[C@H]5O)c4nc3[nH]2)cc1 [Compound 188-Ca]
- Compound 188 loading (w/w) ([2]; target drug loading 30%): 3%

SMILES: O=c1c2nc(Br)n([C@@H]3O[C@@H]4CO[P@@](=O)(S)O[C@H]4[C@H]3O)c2nc2[nH]c(-c3ccccc3)cn12 [Compound 221-BEN, 8-bromo-(β-phenyl-1,N^2-etheno)guanosine-3′,5′-cyclic monophosphorothioate, Rp-isomer, N-benzyl-2-phenylethan-1-aminium salt]
- Release duration [3]: 40 days
- Compound 221 loading (w/w) ([4]; target drug loading 30%): 22.5%
- Compound 221 loading (w/w) [5]: 30.0%
- Release duration ([6]; target drug loading 30%): 43 days

SMILES: O=c1c2nc(Br)n([C@@H]3O[C@@H]4CO[P@@](=O)(S)O[C@H]4[C@H]3O)c2nc2[nH]c(-c3ccccc3)cn12 [Compound 221-BEZ, 8-bromo-(β-phenyl-1,N^2-etheno)guanosine-3′,5′-cyclic monophosphorothioate, Rp-isomer which is N-benzyl-2-(benzylamino)ethan-1-aminium salt]
- Release duration [3]: 40 days
- Compound 221 loading (w/w) ([4]; target drug loading 30%): 14.0%
- Compound 221 loading (w/w) [5]: 30.0%
- Release duration ([6]; target drug loading 30%): 35 days

SMILES: O=c1c2nc(Br)n([C@@H]3O[C@@H]4CO[P@@](=O)(S)O[C@H]4[C@H]3O)c2nc2[nH]c(-c3ccccc3)cn12 [Compound 221-Ca]
- Release duration [3]: 40 days
- Compound 221 loading (w/w) [5]: 30.0%

SMILES: O=c1c2nc(Br)n([C@@H]3O[C@@H]4CO[P@@](=O)(S)O[C@H]4[C@H]3O)c2nc2[nH]c(-c3ccccc3)cn12 [Compound 221-FA]
- Release duration [3]: 26 days
- Compound 221 loading (w/w) ([4]; target drug loading 10%): 1.2%
- Compound 221 loading (w/w) [5]: 10.5%
- Release duration ([6]; target drug loading 10%): 22 days

SMILES: O=c1c2nc(Br)n([C@@H]3O[C@@H]4CO[P@@](=O)(S)O[C@H]4[C@H]3O)c2nc2[nH]c(-c3ccccc3)cn12 [Compound 221-Na]
- Release duration [3]: 14 days
- Compound 221 loading (w/w) [5]: 17.4%

SMILES: O=c1c2nc(Br)n([C@@H]3O[C@@H]4CO[P@@](=O)(S)O[C@H]4[C@H]3O)c2nc2[nH]c(-c3ccccc3)cn12 [Compound 221-TEA]
- Release duration [3]: 40 days
- Compound 221 loading (w/w) ([4]; target drug loading 10%): 1.8%
- Compound 221 loading (w/w) [5]: 15.75%
- Release duration ([6]; target drug loading 10%): 35 days

SMILES: O=c1c2nc(Br)n([C@@H]3O[C@@H]4CO[P@@](O)(=S)O[C@H]4[C@H]3O)c2nc2[nH]c(-c3ccccc3)cn12 [Rp-8-Br-PET-cGMPS]
- photoreceptor cell death, % of untreated at 50 µM ([7]; TUNEL, untreated = 1.0, n = 8, read-out: effect ratio of treated/untreated specimens (photoreceptor cell death)): ~78%
- inhibition at 50 µM ([7]; vs untreated, read-out: reduction of photoreceptor cell death): > 20%
- efficacy / agonistic properties [8]: suboptimal efficacies or even partially agonistic properties

SMILES: Nc1nc2c(nc(Br)n2[C@@H]2O[C@@H]3COP(O)(=S)O[C@H]3[C@H]2O)c(=O)[nH]1 (stereo partly drawn) [Rp-8-Br-cGMPS]
- protection for rd1 and rd2 photoreceptors [9]: some protection
- protection for rd1 and rd2 photoreceptors [10]: some protection
